Test results taken from PubChem BioAssay (NCI).
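Growth conditions: 96-well plates. Treatment: test compound, 48 hours, 5 concentrations. Analysis: linear interpolation between bracketing concentrations; unreached endpoints set to highest concentration. The concentration for 50% growth inhibition is given as GI50. TGI denotes the concentration required for complete inhibition of growth.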

Columns and labels:
Assay in all cases: NCI-60 cell line screen, 48 h
[1] = tested on: HCT-15 colon
[2] = tested on: MOLT-4 leukemia
[3] = tested on: MDA-MB-231 breast
[4] = tested on: SNB-75 CNS
[5] = tested on: SK-MEL-5 melanoma
[6] = tested on: NCI/ADR-RES ovarian
[7] = tested on: SK-MEL-2 melanoma
[8] = tested on: SF-539 CNS
[9] = tested on: SNB-19 CNS
[10] = tested on: SF-268 CNS
[11] = tested on: UACC-62 melanoma
[12] = tested on: SK-OV-3 ovarian
[13] = tested on: BT-549 breast
[14] = tested on: NCI-H23 lung
[15] = tested on: HS 578T breast
[16] = tested on: SW-620 colon
[17] = tested on: NCI-H226 lung
[18] = tested on: OVCAR-3 ovarian
[19] = tested on: KM12 colon
[20] = tested on: OVCAR-4 ovarian
[21] = tested on: K-562 leukemia
[22] = tested on: MCF7 breast
[23] = tested on: RXF 393 renal
[24] = tested on: SR leukemia
[25] = tested on: RPMI-8226 leukemia
[26] = tested on: COLO 205 colon
[27] = tested on: 786-0 renal
[28] = tested on: ACHN renal
[29] = tested on: U251 CNS
[30] = tested on: LOX IMVI melanoma
[31] = tested on: OVCAR-5 ovarian
[32] = tested on: T-47D breast
[33] = tested on: HT29 colon
[34] = tested on: TK-10 renal
[35] = tested on: A498 renal
[36] = tested on: SF-295 CNS
[37] = tested on: HCT-116 colon
[38] = tested on: A549 NSCLC
[39] = tested on: MALME-3M melanoma
[40] = tested on: NCI-H460 lung
[41] = tested on: EKVX NSCLC
[42] = tested on: CAKI-1 renal
[43] = tested on: CCRF-CEM leukemia
[44] = tested on: HOP-62 NSCLC
[45] = tested on: SN12C renal
[46] = tested on: UO-31 renal
[47] = tested on: HCC-2998 colon
[48] = tested on: HL-60(TB) leukemia
[49] = tested on: HOP-92 NSCLC
[50] = tested on: PC-3 prostate
[51] = tested on: IGROV1 ovarian
[52] = tested on: M14 melanoma
[53] = tested on: NCI-H522 lung
[54] = tested on: OVCAR-8 ovarian
[55] = tested on: DU-145 prostate

COc1ccc(C(O)c2cc3c(N)c(C(=O)Nc4ccccc4)sc3nc2C)cc1 (stereo not given)
GI50 [1]: 40.3 nM
TGI [1]: > 100000 nM
GI50 [2]: 50.8 nM
TGI [2]: > 100000 nM
GI50 [3]: 72.8 nM
TGI [3]: 9630 nM
GI50 [4]: 26.7 nM
TGI [4]: 21900 nM
GI50 [5]: 35.9 nM
TGI [5]: 591 nM
GI50 [6]: 38.1 nM
TGI [6]: 2020 nM
GI50 [7]: 238 nM
TGI [7]: > 100000 nM
GI50 [8]: 34.8 nM
TGI [8]: 825 nM
GI50 [9]: 44.3 nM
TGI [9]: 20400 nM
GI50 [10]: 174 nM
TGI [10]: > 70000 nM
GI50 [11]: 39.7 nM
TGI [11]: 19400 nM
GI50 [12]: 53.9 nM
TGI [12]: 25400 nM
GI50 [13]: 186 nM
TGI [13]: 36400 nM
GI50 [14]: 75.4 nM
TGI [14]: > 50100 nM
GI50 [15]: 30.5 nM
TGI [15]: 3010 nM
GI50 [16]: 39.1 nM
TGI [16]: > 100000 nM
GI50 [17]: 57.9 nM
TGI [17]: 1870 nM
GI50 [18]: 32.1 nM
TGI [18]: 1270 nM
GI50 [19]: 40.3 nM
TGI [19]: > 100000 nM
GI50 [20]: 2030 nM
TGI [20]: > 100000 nM
GI50 [21]: 38.2 nM
TGI [21]: > 100000 nM
GI50 [22]: 34.5 nM
TGI [22]: 19300 nM
GI50 [23]: 28.6 nM
TGI [23]: 911 nM
GI50 [24]: 33.3 nM
TGI [24]: > 100000 nM
GI50 [25]: 41.6 nM
TGI [25]: > 100000 nM
GI50 [26]: 219 nM
TGI [26]: 1800 nM
GI50 [27]: 76.3 nM
TGI [27]: 25300 nM
GI50 [28]: 68.3 nM
TGI [28]: 27500 nM
GI50 [29]: 42.5 nM
TGI [29]: 29700 nM
GI50 [30]: 53.9 nM
TGI [30]: > 100000 nM
GI50 [31]: 71.4 nM
TGI [31]: 25400 nM
GI50 [32]: 51.4 nM
TGI [32]: > 100000 nM
GI50 [33]: 33.3 nM
TGI [33]: 8600 nM
GI50 [34]: 4510 nM
TGI [34]: 49800 nM
GI50 [35]: 26.2 nM
TGI [35]: 2790 nM
GI50 [36]: 35.2 nM
TGI [36]: 12600 nM
GI50 [37]: 42.5 nM
TGI [37]: > 35400 nM
GI50 [38]: 62.8 nM
TGI [38]: > 100000 nM
GI50 [39]: 51 nM
TGI [39]: 35100 nM
GI50 [40]: 36.1 nM
TGI [40]: 11100 nM
GI50 [41]: 61.7 nM
TGI [41]: > 100000 nM
GI50 [42]: 41.6 nM
TGI [42]: 20700 nM
GI50 [43]: 38.3 nM
TGI [43]: > 100000 nM
GI50 [44]: 77.4 nM
TGI [44]: 68600 nM
GI50 [45]: 62.8 nM
TGI [45]: 29500 nM
GI50 [46]: 70.6 nM
TGI [46]: 49800 nM
GI50 [47]: 102 nM
TGI [47]: 3790 nM
GI50 [48]: 32.4 nM
TGI [48]: 459 nM
GI50 [49]: 54.6 nM
TGI [49]: 12100 nM
GI50 [50]: 140 nM
TGI [50]: > 74300 nM
GI50 [51]: 94 nM
TGI [51]: 22600 nM
GI50 [52]: 34.9 nM
TGI [52]: > 100000 nM
GI50 [53]: 34.7 nM
TGI [53]: 2570 nM
GI50 [54]: 63.6 nM
TGI [54]: > 100000 nM
GI50 [55]: 41.4 nM
TGI [55]: 50600 nM
